T1: C. elegans farnesyltransferase (ceFTase) (Caenorhabditis elegans, UniProt O44501+Q19752)
T1 construct: gene fntb-1; coding regions of FTα (NM_001392242.1) and FTβ (NM_001392654.1), N-terminal His-tag on β-subunit; with farnesyltransferase α-subunit (ceFNTA)
T1 sequence (Q19752 1-401): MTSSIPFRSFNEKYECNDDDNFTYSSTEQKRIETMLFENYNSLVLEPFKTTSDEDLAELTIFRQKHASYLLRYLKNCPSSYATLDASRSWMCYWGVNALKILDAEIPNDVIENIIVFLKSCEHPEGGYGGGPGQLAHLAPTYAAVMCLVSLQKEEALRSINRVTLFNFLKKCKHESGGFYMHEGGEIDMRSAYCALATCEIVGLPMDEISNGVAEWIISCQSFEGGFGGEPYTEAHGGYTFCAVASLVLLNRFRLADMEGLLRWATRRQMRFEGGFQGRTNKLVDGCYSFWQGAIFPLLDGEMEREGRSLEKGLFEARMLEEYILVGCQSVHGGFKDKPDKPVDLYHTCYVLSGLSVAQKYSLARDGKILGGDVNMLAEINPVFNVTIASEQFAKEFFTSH
T1 sequence (O44501 1-328): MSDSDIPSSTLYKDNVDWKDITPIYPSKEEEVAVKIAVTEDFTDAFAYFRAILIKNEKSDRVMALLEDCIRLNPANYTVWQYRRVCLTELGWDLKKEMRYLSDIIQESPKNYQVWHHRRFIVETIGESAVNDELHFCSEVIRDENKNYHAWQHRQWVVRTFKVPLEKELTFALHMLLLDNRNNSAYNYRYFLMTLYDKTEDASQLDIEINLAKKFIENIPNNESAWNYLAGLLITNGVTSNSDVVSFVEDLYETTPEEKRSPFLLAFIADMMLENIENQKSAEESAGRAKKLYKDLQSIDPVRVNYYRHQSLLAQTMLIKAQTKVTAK


Tests used:
[1] = target: T1, C. elegans farnesyltransferase (ceFTase); experiment: continuous fluorescence assay with Dansyl-GCVLS and FPP, […]°C; Ki calculated from IC50 […] (Cheng-Prusoff); format: biochemical
[2] = target: T2, human farnesyltransferase (hFTase) (Homo sapiens, UniProt P49354+P49356); experiment: as above; format: biochemical
T2 construct: gene FNTB; IMAC purified FTase, FTα/FTβ heterodimer, His-tagged β-subunit; with farnesyltransferase α-subunit (FNTA)

[3] = substrate: CC(C)=CCC/C(C)=C/CC/C(C)=C/CO[P@@](=O)(O)OP(=O)(O)O; experiment: purified protein; conditions: Zn2+ ([…] ZnCl2 in assay)

Row | Ki [1] | Ki [2] | Molecule | Km [3]
1 | 3.16 µM | 4.4 µM | CCCC[C@@H](C)/C=C(C)/C=C(\C)C(=O)NC1=C[C@@](O)(/C=C/C=C/C=C/C(=O)NC2=C(O)CCC2=O)[C@@H]2O[C@@H]2C1=O [Manumycin A] | 
2 |  |  | C. elegans farnesyltransferase (ceFTase) (Caenorhabditis elegans) (protein) chain 1: MTSSIPFRSFNEKYECNDDDNFTYSSTEQKRIETMLFENYNSLVLEPFKTTSDEDLAELTIFRQKHASYLLRYLKNCPSSYATLDASRSWMCYWGVNALKILDAEIPNDVIENIIVFLKSCEHPEGGYGGGPGQLAHLAPTYAAVMCLVSLQKEEALRSINRVTLFNFLKKCKHESGGFYMHEGGEIDMRSAYCALATCEIVGLPMDEISNGVAEWIISCQSFEGGFGGEPYTEAHGGYTFCAVASLVLLNRFRLADMEGLLRWATRRQMRFEGGFQGRTNKLVDGCYSFWQGAIFPLLDGEMEREGRSLEKGLFEARMLEEYILVGCQSVHGGFKDKPDKPVDLYHTCYVLSGLSVAQKYSLARDGKILGGDVNMLAEINPVFNVTIASEQFAKEFFTSH chain 2: MSDSDIPSSTLYKDNVDWKDITPIYPSKEEEVAVKIAVTEDFTDAFAYFRAILIKNEKSDRVMALLEDCIRLNPANYTVWQYRRVCLTELGWDLKKEMRYLSDIIQESPKNYQVWHHRRFIVETIGESAVNDELHFCSEVIRDENKNYHAWQHRQWVVRTFKVPLEKELTFALHMLLLDNRNNSAYNYRYFLMTLYDKTEDASQLDIEINLAKKFIENIPNNESAWNYLAGLLITNGVTSNSDVVSFVEDLYETTPEEKRSPFLLAFIADMMLENIENQKSAEESAGRAKKLYKDLQSIDPVRVNYYRHQSLLAQTMLIKAQTKVTAK | 1.3 µM

Source: paper PMC9763582, “Analyzing the postulated inhibitory effect of Manumycin A on farnesyltransferase” (Frontiers in Chemistry, 2022)
